The text below walks through data of PMC4204381 (Computational and Structural Biotechnology Journal, 2014).

Series [1] deals with patients. Conditions: cited from earlier work.
Series [2] deals with Male Sprague–Dawley rats. The format is in vivo, rat. Conditions: p < 0.05; for Palmitoylcarnitine blood level vs control: Fig. 4B; for LysoPC(20:1) blood level vs control: Fig. 4C; for Oleoylcarnitine blood level vs control: Fig. 4A.
Series [3] deals with Male Sprague–Dawley rats. Put plainly: Histopathology and tissue observations in rats after a single oral dose. The note with it: for hepatic vacuolization / hepatic necrosis: low and high doses, 6 or 24 h.
Series [4] relates to Male Sprague–Dawley rats. Put plainly: Clinical chemistry. Conditions: for clinical chemistry changes (ALT, AST, ALP): low dose, 6 or 24 h.

The structures appear in SMILES notation. Like-named read-outs stand apart in the source and are kept apart here.

As to `O=C1CN(/N=C/c2ccc(-c3ccc([N+](=O)[O-])cc3)o2)C(O)=N1` [DAN, dantrolene], in series [1] (patients), the incidence of hepatotoxicity is 0.35%. Besides, the “Palmitoylcarnitine blood level vs control” value in series [2] (6 h) is on record as “significantly increased”. In series [2] (24 h), the “LysoPC(20:1) blood level vs control” value is “significantly decreased”. Further, the “hepatic vacuolization / hepatic necrosis” value in series [3] is on record as “neither hepatic vacuolization nor hepatic necrosis”.

Turning to `Nc1c2c(nc3ccccc13)CCCC2` [tacrine], in series [1] (human, in vivo), the “ALT increase with no liver cell injury” value is on record as > 20 fold of the upper limit of normal.

Regarding `NC(=O)OCC(COC(N)=O)c1ccccc1` [FEL, felbamate], in series [2] (6 h), the “LysoPC(20:1) blood level vs control” value is listed as “significantly decreased”. In series [2] (24 h), the “Palmitoylcarnitine blood level vs control” value is listed as “appeared to be increased” and the “LysoPC(20:1) blood level vs control” value was “significantly decreased”. Further, in series [3], the “hepatic vacuolization / hepatic necrosis” value is “neither hepatic vacuolization nor hepatic necrosis”. Besides, the “clinical chemistry changes (ALT, AST, ALP)” value in series [4] is “did not have any clinical chemistry changes”.

In the case of `CN(C)C(=N)N=C(N)N` [MET, metformin], in series [1] (by 2012, concomitant intake of other potential hepatotoxicants), the “cases of liver injury reported to be associated with MET” value is reported as under 10 cases. Besides, the “Oleoylcarnitine blood level vs control” value in series [2] (6 h) was “significantly increased”. Also, the “Taurocholic acid blood level vs control” value in series [2] (6 h, Fig. 4D) is listed as “significantly decreased”. Also, the “hepatic vacuolization / hepatic necrosis” value in series [3] was “neither hepatic vacuolization nor hepatic necrosis”. For the same compound, in series [4] (6 h, high dose), the “ALT increase of ALT value in control group” value was under 3 fold. The “clinical chemistry changes (ALT, AST, ALP)” value in series [4] is “did not have any clinical chemistry changes”.

Regarding `Cc1cnc(NC(=O)C2=C(O)c3ccccc3S(=O)(=O)N2C)s1` [MEL, meloxicam], the “Palmitoylcarnitine blood level vs control” value in series [2] (6 h) is given as “significantly increased”. The “LysoPC(20:1) blood level vs control” value in series [2] (24 h) is “appeared to be decreased”. Further, the “hepatic vacuolization / hepatic necrosis” value in series [3] was “neither hepatic vacuolization nor hepatic necrosis”. For the same compound, in series [3] (rats treated with MEL for 24 h), the “inflammation in the capsule of kidney (incidence)” value is 1 out of 5 and the “inflammation in the capsule of liver (incidence)” value is on record as 2 out of 5. Also, the “ALT increase of the ALT value of the control group” value in series [4] (24 h, high dose group) is on record as under 2 fold.

With `CC(=O)Nc1ccc(O)cc1` [APAP, acetaminophen], in series [2] (6 h), the “Oleoylcarnitine blood level vs control” value is reported as “significantly increased”, the “Palmitoylcarnitine blood level vs control” value is recorded as “significantly increased” and the “LysoPC(20:1) blood level vs control” value is given as “significantly decreased”. Further, in series [2] (24 h), the “Oleoylcarnitine blood level vs control” value was “significantly increased”, the “Palmitoylcarnitine blood level vs control” value is reported as “appeared to be increased” and the “LysoPC(20:1) blood level vs control” value is reported as “appeared to be decreased”.
